Results from the kinase profiling compilation of Christmann-Franck et al. (2016).

Columns and labels:
Assay in all cases: KINOMEscan competition binding
Conditions in all cases: compound 10.0 µM
DYRK1A (human) = DYRK1A (human) (UniProt Q13627)
MAPKAPK5 (human) = MAPKAPK5 (human) (UniProt Q8IW41)
[1] = system: KIT (human), P10721 [V559D/V654A]
STK38L (human) = STK38L (human) (UniProt Q9Y2H1)
AXL (human) = AXL (human) (UniProt P30530)
AURKC (human) = AURKC (human) (UniProt Q9UQB9)
PLK3 (human) = PLK3 (human) (UniProt Q9H4B4)
[2] = system: RET (human), P07949 [M918T]
PKMYT1 (human) = PKMYT1 (human) (UniProt Q99640)
HIPK4 (human) = HIPK4 (human) (UniProt Q8NE63)
MAP3K11 (human) = MAP3K11 (human) (UniProt Q16584)
CDK14 (human) = CDK14 (human) (UniProt O94921)
MST4 (human) = MST4 (human) (UniProt Q9P289)
NEK3 (human) = NEK3 (human) (UniProt P51956)
CSNK1G1 (human) = CSNK1G1 (human) (UniProt Q9HCP0)
MAP2K4 (human) = MAP2K4 (human) (UniProt P45985)
STK3 (human) = STK3 (human) (UniProt Q13188)
ICK (human) = ICK (human) (UniProt Q9UPZ9)
CAMK4 (human) = CAMK4 (human) (UniProt Q16566)
GAK (human) = GAK (human) (UniProt O14976)
NEK9 (human) = NEK9 (human) (UniProt Q8TD19)
CAMK2B (human) = CAMK2B (human) (UniProt Q13554)
STK16 (human) = STK16 (human) (UniProt O75716)
AURKA (human) = AURKA (human) (UniProt O14965)
CDK5 (human) = CDK5 (human) (UniProt Q00535)
MAP3K6 (human) = MAP3K6 (human) (UniProt O95382)
OXSR1 (human) = OXSR1 (human) (UniProt O95747)
PRKD1 (human) = PRKD1 (human) (UniProt Q15139)
[3] = molecular target: JAK2 JH1 catalytic (human) (UniProt O60674)
DAPK1 (human) = DAPK1 (human) (UniProt P53355)
TLK1 (human) = TLK1 (human) (UniProt Q9UKI8)
STK36 (human) = STK36 (human) (UniProt Q9NRP7)
TGFBR1 (human) = TGFBR1 (human) (UniProt P36897)
MAP2K3 (human) = MAP2K3 (human) (UniProt P46734)
STK24 (human) = STK24 (human) (UniProt Q9Y6E0)
RIPK2 (human) = RIPK2 (human) (UniProt O43353)
MAP2K7 (human) = MAP2K7 (human) (UniProt O14733)
TTK (human) = TTK (human) (UniProt P33981)
MAP2K1 (human) = MAP2K1 (human) (UniProt Q02750)
PHKG1 (human) = PHKG1 (human) (UniProt Q16816)
Chain of PHKG1 (human) (Q16816 whole entry, looked up): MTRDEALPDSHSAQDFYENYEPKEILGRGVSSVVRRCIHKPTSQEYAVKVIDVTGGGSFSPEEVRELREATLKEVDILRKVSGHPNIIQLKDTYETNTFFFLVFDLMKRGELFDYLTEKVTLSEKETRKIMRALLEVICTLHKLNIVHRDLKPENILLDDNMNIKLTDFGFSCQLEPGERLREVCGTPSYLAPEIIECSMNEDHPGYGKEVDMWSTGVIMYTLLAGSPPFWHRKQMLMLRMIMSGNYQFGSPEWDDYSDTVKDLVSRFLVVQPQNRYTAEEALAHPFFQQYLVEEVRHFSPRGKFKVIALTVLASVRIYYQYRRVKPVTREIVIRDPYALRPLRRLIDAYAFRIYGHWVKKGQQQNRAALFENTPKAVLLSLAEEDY

Chain of TGFBR1 (human) (P36897 whole entry, looked up): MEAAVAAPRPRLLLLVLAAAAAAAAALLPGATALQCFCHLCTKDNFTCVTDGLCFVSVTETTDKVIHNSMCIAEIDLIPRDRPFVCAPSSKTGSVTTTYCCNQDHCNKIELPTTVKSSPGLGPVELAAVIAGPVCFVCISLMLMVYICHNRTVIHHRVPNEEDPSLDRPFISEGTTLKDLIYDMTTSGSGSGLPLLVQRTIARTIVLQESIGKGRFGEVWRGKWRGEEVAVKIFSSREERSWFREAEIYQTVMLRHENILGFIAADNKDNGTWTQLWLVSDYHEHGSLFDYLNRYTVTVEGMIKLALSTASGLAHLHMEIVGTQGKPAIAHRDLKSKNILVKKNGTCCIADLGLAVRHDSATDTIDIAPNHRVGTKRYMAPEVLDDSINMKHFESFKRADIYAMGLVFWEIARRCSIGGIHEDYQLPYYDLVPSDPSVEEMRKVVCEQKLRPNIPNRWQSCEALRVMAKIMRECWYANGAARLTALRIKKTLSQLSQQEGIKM
Chain of MAP3K11 (human) (Q16584 whole entry, looked up): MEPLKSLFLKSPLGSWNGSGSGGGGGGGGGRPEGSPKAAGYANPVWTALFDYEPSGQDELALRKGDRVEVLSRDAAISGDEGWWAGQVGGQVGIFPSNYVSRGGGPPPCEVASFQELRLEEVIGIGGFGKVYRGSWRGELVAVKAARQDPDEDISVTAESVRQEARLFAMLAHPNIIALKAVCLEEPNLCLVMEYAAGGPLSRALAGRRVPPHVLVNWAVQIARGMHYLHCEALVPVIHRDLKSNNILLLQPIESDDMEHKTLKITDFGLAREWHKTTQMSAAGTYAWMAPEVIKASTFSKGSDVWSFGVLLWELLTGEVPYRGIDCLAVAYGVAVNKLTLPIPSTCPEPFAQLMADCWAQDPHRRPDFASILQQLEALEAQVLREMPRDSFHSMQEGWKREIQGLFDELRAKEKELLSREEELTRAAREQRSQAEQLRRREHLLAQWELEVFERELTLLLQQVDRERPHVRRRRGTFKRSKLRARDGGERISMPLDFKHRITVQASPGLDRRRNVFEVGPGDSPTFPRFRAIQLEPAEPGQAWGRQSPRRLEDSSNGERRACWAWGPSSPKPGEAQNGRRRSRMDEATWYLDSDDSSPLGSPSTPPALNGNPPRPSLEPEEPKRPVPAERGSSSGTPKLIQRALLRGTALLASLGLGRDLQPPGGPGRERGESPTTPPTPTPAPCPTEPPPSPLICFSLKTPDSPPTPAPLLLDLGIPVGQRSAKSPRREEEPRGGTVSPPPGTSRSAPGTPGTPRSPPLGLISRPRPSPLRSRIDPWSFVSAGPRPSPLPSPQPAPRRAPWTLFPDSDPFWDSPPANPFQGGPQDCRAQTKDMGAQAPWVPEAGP
Chain of AXL (human) (P30530 whole entry, looked up): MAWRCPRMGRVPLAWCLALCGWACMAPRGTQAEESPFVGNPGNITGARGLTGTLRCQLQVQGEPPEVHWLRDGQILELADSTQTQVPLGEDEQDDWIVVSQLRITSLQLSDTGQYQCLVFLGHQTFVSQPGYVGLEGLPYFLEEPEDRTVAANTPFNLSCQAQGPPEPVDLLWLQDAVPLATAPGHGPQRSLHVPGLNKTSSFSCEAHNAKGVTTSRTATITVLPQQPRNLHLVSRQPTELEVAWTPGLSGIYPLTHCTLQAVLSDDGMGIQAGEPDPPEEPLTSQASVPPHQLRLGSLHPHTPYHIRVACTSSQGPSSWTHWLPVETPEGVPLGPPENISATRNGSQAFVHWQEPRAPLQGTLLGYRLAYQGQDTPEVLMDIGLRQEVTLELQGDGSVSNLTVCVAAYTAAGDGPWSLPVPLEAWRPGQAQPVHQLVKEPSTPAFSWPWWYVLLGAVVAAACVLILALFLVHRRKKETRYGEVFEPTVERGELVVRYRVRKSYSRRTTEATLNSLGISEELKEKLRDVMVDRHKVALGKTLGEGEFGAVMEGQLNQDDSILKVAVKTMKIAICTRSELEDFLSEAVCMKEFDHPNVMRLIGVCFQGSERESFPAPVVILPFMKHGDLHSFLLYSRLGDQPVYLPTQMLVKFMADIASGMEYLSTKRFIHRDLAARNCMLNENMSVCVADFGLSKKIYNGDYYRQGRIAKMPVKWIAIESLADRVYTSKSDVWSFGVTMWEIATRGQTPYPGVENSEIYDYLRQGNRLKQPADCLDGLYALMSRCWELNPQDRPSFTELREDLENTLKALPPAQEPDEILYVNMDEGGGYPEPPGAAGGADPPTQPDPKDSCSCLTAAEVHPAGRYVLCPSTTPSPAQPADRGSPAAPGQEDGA
Chain of STK38L (human) (Q9Y2H1 whole entry, looked up): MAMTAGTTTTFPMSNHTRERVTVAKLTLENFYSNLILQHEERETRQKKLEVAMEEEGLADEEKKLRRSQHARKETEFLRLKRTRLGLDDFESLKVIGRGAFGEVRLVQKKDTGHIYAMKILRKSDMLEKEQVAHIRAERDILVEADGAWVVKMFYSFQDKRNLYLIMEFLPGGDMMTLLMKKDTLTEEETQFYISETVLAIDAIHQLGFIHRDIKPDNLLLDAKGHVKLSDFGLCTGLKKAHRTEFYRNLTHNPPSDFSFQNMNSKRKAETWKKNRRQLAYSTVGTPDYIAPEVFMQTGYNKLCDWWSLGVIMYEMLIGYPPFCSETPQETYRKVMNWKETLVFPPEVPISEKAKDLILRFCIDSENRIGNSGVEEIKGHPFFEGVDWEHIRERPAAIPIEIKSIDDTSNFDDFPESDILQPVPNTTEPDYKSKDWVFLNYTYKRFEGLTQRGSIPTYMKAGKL
Chain of RIPK2 (human) (O43353 whole entry, looked up): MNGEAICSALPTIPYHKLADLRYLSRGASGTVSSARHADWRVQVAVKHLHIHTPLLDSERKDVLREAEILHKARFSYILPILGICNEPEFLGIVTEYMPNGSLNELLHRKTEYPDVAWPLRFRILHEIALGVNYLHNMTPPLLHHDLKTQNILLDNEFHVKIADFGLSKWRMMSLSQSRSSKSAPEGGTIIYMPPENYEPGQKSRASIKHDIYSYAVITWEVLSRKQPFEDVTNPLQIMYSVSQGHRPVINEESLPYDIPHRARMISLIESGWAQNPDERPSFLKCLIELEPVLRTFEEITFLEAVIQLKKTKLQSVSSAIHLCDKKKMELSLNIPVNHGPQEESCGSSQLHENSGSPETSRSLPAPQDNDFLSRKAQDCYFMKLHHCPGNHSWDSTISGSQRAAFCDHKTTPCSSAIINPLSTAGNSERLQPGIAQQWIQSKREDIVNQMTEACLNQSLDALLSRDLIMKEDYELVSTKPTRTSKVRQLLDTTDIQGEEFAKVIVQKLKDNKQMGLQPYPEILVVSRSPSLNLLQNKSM
Chain of MST4 (human) (Q9P289 whole entry, looked up): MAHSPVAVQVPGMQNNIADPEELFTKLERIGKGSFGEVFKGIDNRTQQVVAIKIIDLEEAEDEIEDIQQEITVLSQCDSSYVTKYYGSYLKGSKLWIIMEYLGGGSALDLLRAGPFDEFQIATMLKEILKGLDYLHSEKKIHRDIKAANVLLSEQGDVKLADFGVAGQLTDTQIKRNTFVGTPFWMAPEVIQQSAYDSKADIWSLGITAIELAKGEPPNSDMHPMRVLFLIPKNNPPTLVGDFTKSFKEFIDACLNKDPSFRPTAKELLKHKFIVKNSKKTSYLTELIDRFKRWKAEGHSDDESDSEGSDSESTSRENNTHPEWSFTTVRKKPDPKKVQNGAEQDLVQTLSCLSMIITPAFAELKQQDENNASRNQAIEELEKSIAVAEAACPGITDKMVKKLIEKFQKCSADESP
Chain of KIT (human), P10721 [V559D/V654A] (P10721 whole entry V559D/V654A, looked up): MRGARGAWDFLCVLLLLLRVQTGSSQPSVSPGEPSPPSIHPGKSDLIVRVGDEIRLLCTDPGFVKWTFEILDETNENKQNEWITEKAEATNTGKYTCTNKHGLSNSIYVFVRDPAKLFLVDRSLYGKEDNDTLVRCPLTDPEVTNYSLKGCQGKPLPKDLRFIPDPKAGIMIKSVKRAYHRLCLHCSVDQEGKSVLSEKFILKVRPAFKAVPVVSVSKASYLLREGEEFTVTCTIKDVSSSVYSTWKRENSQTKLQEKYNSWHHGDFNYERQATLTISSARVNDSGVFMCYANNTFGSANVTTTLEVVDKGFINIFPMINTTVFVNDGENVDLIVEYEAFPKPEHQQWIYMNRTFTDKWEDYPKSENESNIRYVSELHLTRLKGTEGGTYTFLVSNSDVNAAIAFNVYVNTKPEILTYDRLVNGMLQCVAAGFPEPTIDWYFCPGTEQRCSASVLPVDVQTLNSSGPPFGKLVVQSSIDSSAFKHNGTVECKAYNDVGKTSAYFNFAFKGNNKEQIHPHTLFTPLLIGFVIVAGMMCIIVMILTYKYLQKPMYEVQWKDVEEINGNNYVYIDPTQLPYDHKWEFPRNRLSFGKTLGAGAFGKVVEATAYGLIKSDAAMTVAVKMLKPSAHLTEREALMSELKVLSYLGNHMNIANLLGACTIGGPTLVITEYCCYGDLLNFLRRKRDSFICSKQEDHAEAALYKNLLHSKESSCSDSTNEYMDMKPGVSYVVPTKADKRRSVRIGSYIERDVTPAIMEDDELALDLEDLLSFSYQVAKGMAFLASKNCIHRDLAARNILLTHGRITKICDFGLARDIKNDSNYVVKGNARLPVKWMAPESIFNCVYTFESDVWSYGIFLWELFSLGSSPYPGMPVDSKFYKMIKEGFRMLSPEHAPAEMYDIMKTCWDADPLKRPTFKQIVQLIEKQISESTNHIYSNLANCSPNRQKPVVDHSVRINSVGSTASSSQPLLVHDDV

Row | SMILES | kinase still bound, per cent of control (DYRK1A (human)) [%] | kinase still bound, per cent of control (MAPKAPK5 (human)) [%] | kinase still bound, per cent of control [1] [%] | kinase still bound, per cent of control (STK38L (human)) [%] | kinase still bound, per cent of control (AXL (human)) [%] | kinase still bound, per cent of control (AURKC (human)) [%] | kinase still bound, per cent of control (PLK3 (human)) [%] | kinase still bound, per cent of control [2] [%] | kinase still bound, per cent of control (PKMYT1 (human)) [%] | kinase still bound, per cent of control (HIPK4 (human)) [%] | kinase still bound, per cent of control (MAP3K11 (human)) [%] | kinase still bound, per cent of control (CDK14 (human)) [%] | kinase still bound, per cent of control (MST4 (human)) [%] | kinase still bound, per cent of control (NEK3 (human)) [%] | kinase still bound, per cent of control (CSNK1G1 (human)) [%] | kinase still bound, per cent of control (MAP2K4 (human)) [%] | kinase still bound, per cent of control (STK3 (human)) [%] | kinase still bound, per cent of control (ICK (human)) [%] | kinase still bound, per cent of control (CAMK4 (human)) [%] | kinase still bound, per cent of control (GAK (human)) [%] | also measured
1 | CCN1CCN(C(=O)Cc2ccc(Nc3ncc(F)c(Nc4ccc(C(=O)Nc5ccccc5Cl)cc4)n3)cc2)CC1 | 47 | 100 | 84 | 60 | 2.1 | 1.2 | 82 | 0.55 | 100 | 2.4 | 4.6 | 53 | 43 | 60 | 100 | 49 | 100 | 100 | 100 | 5.7 | kinase still bound, per cent of control (NEK9 (human)): 18%; kinase still bound, per cent of control (CAMK2B (human)): 72%; kinase still bound, per cent of control (STK16 (human)): 1.6%; kinase still bound, per cent of control (AURKA (human)): 0.5%; kinase still bound, per cent of control (CDK5 (human)): 79%; kinase still bound, per cent of control (MAP3K6 (human)): 86%; kinase still bound, per cent of control (OXSR1 (human)): 100%; kinase still bound, per cent of control (PRKD1 (human)): 100%; kinase still bound, per cent of control [3]: 76%; kinase still bound, per cent of control (DAPK1 (human)): 3.8%; kinase still bound, per cent of control (TLK1 (human)): 19%; kinase still bound, per cent of control (STK36 (human)): 2.1%; kinase still bound, per cent of control (TGFBR1 (human)): 57%; kinase still bound, per cent of control (MAP2K3 (human)): 57%; kinase still bound, per cent of control (STK24 (human)): 32%; kinase still bound, per cent of control (RIPK2 (human)): 19%; kinase still bound, per cent of control (MAP2K7 (human)): 100%; kinase still bound, per cent of control (TTK (human)): 18%; kinase still bound, per cent of control (MAP2K1 (human)): 76%; kinase still bound, per cent of control (PHKG1 (human)): 82%
2 | COc1cc2ncnc(-n3nc(-c4ccccn4)nc3N)c2cc1OC | 0.1 | 100 | 82 | 69 | 6 | 6.2 | 33 | 14 | 63 | 6 | 63 | 62 | 68 | 87 | 33 | 3.8 | 54 | 47 | 100 | 2.6 | kinase still bound, per cent of control (NEK9 (human)): 2.2%; kinase still bound, per cent of control (CAMK2B (human)): 37%; kinase still bound, per cent of control (STK16 (human)): 2.8%; kinase still bound, per cent of control (AURKA (human)): 15%; kinase still bound, per cent of control (CDK5 (human)): 100%; kinase still bound, per cent of control (MAP3K6 (human)): 64%; kinase still bound, per cent of control (OXSR1 (human)): 42%; kinase still bound, per cent of control (PRKD1 (human)): 88%; kinase still bound, per cent of control [3]: 26%; kinase still bound, per cent of control (DAPK1 (human)): 3.6%; kinase still bound, per cent of control (TLK1 (human)): 46%; kinase still bound, per cent of control (STK36 (human)): 7.4%; kinase still bound, per cent of control (TGFBR1 (human)): 14%; kinase still bound, per cent of control (MAP2K3 (human)): 27%; kinase still bound, per cent of control (STK24 (human)): 56%; kinase still bound, per cent of control (RIPK2 (human)): 2.6%; kinase still bound, per cent of control (MAP2K7 (human)): 77%; kinase still bound, per cent of control (TTK (human)): 20%; kinase still bound, per cent of control (MAP2K1 (human)): 64%; kinase still bound, per cent of control (PHKG1 (human)): 55%
3 | CN(C)C/C=C/C(=O)Nc1ccc(C(=O)Nc2cccc(Nc3nccc(-c4cccnc4)n3)c2)cc1 | 28 | 100 | 56 | 100 | 80 | 5.5 | 35 | 70 | 100 | 8.6 | 100 | 98 | 100 | 17 | 0.5 | 9.8 | 100 | 62 | 100 | 3.6 | kinase still bound, per cent of control (NEK9 (human)): 22%; kinase still bound, per cent of control (CAMK2B (human)): 60%; kinase still bound, per cent of control (STK16 (human)): 1.2%; kinase still bound, per cent of control (AURKA (human)): 11%; kinase still bound, per cent of control (CDK5 (human)): 100%; kinase still bound, per cent of control (MAP3K6 (human)): 86%; kinase still bound, per cent of control (OXSR1 (human)): 100%; kinase still bound, per cent of control (PRKD1 (human)): 100%; kinase still bound, per cent of control [3]: 8.4%; kinase still bound, per cent of control (DAPK1 (human)): 58%; kinase still bound, per cent of control (TLK1 (human)): 92%; kinase still bound, per cent of control (STK36 (human)): 99%; kinase still bound, per cent of control (TGFBR1 (human)): 100%; kinase still bound, per cent of control (MAP2K3 (human)): 24%; kinase still bound, per cent of control (STK24 (human)): 100%; kinase still bound, per cent of control (RIPK2 (human)): 84%; kinase still bound, per cent of control (MAP2K7 (human)): 80%; kinase still bound, per cent of control (TTK (human)): 77%; kinase still bound, per cent of control (MAP2K1 (human)): 92%; kinase still bound, per cent of control (PHKG1 (human)): 96%
